Square brackets hold non-standard residues; d marks the D form. Peptide text beside a SMILES is read from it. * marks the point of attachment. Leu(ol) = CC(C)C[C@H](N)CO; Boc = CC(C)(C)OC(=O)*

The assay deals with T1, Renin (Homo sapiens, UniProt P00797).
T1 sequence (P00797 whole entry): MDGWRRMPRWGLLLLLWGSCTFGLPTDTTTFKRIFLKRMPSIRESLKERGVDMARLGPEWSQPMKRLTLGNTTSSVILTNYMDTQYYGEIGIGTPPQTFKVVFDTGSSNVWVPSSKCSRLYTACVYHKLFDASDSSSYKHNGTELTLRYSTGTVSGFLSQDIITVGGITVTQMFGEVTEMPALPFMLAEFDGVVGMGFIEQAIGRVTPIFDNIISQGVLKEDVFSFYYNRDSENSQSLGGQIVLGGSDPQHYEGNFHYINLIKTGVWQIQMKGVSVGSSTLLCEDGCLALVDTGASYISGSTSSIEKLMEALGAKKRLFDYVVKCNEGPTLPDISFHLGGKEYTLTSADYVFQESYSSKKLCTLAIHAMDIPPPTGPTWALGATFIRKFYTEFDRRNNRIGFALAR
In words: Compound was evaluated for inhibitory activity against renin. The following applies: read-out: I50.

For `CC(C)C[C@@H](CO)NC(=O)[C@H](Cc1cnc[nH]1)NC(=O)[C@H](Cc1ccccc1)NC(=O)OC(C)(C)C` (Boc-Phe-His-[Leu(ol)]), the IC50 is 16 µM.

Take `CC(C)C[C@@H](CO)NC(=O)[C@H](Cc1c[nH]cn1)C(=O)N[C@H](Cc1ccccc1)C(=O)NCC(C)(C)C`: the IC50 worked out at 1200 µM.

Regarding `CC(C)C[C@H](CO)C(=O)N[C@H](Cc1c[nH]cn1)C(=O)N[C@H](Cc1ccccc1)C(=O)NCC(C)(C)C`, the IC50 came out at 80 µM.

Turning to `CC(C)C[C@@H](CO)C(=O)N[C@H](Cc1c[nH]cn1)C(=O)N[C@H](Cc1ccccc1)C(=O)NCC(C)(C)C`, the IC50 worked out at 20 µM.

The values are drawn from ChEMBL document CHEMBL1153261, “Retro-Inverso Tripeptide Renin Inhibitors” (Bioorg Med Chem Lett, 1992).
